In patent US10953100B2, “Compounds and therapeutic uses thereof” (priority 2015, dated 2021):

These compounds were tested against Anti-alpha galactosyl IgG antibody (assay: ELISA assay: streptavidin-captured biotin compound, binding of anti-alpha galactosyl IgG antibody). Details: geometric mean with standard error in brackets; streptavidin plate, anti-alpha galactosyl IgG 0.5 μg/mL; read-out: Concentration at half maximal binding.
Set-up: species or system human
Protocol: Compounds containing F (representing a carbohydrate molecule capable of binding to a human anti-alpha-galactosyl antibody) and L (as biotin) were assayed for binding at both ends of the compound using an enzyme-linked immunosorbent assay (ELISA). Streptavidin-coated plates captured biotin to the surface of the plate and the binding of anti-alpha galactosyl antibodies to the alpha-galactosyl moiety was reported by a secondary antibody labelled with HRP (Horse Radish Peroxidase).
Compounds were titrated 1.5 fold from a top dose of 50 nM in phosphate buffered saline (PBS) (Sigma D8537)+0.025% DMSO (Dimethyl Sulphoxide, Sigma D8418). Streptavidin immobilizer 96-well plates (nunc 436014) were coated with 100 μL of compound at room temperature for 2 hours shaking at 500 rpm. Plates were washed with 2×200 μL PBS-T (PBS with 0.05% Tween 20 (Sigma P9416)) and 1×200 μL PBS-T with a 5 minute incubation shaking at room temperature, prior to being blocked for 1 hour at room temperature with 1% Bovine Serum Albumin (BSA, Sigma A2153) in PBS-T. After removing the blocking buffer, 50 μL of Anti-alpha galactosyl IgG antibody (Anti-alpha-galactosyl antibody was purified from human IVIG (Gammagard) by affinity purification using an alpha-galactosyl-HSA (Human Serum Albumin) sepharose column by Rockland Immunochemicals Inc.) at 0.5 μg/mL in PBS-T+1% BSA and incubated shaking at room temperature for 1 hour.
Plates were washed 2×200 μL PBS-T and 3×200 μL PBS-T with a 5 minute incubation, shaking at room temperature before the addition of 50 μL 1:5000 Goat Anti-Human IgG-HRP (horseradish peroxidase) conjugate (Abcam ab97175). The plates were incubated shaking at room temperature for 1 hour before a final wash of 2×200 μL PBS-T and 3×200 μl PBS-T with a 5 minute incubation shaking at room temperature. 100 μL TMB buffer (3,3′,5,5′-tetramethylbenzidine, a chromogenic substrate for horseradish peroxidase) (Pierce 34021) was added to the plate and allowed to develop for 5-10 minutes before the samples were quenched with 50 μL 2M sulfuric acid (Sigma 258105). The absorbance was read at 450 nm on an Envision plate reader (Perkin Elmer). Results from wells (duplicate) were averaged and the 50% binding affinity calculated.
The concentration at which half-maximal binding is achieved is reported as a geometric mean with standard error in brackets. The number of independent experiments is also reported. In order to achieve a signal both ends of the molecule are required to bind (biotin to streptavidin and alpha-galactosyl to anti-alpha galactosyl antibodies) simultaneously.
Compound CC(=O)N[C@H]1[C@H](OCCCNC(=O)COc2cc(OCC(=O)NCCCO[C@@H]3O[C@H](CO)[C@@H](O[C@@H]4O[C@H](CO)[C@H](O)[C@H](O[C@H]5O[C@H](CO)[C@H](O)[C@H](O)[C@H]5O)[C@H]4O)[C@H](O)[C@H]3NC(C)=O)cc(-c3cc(C(=O)NCCNC(=O)CCCC[C@@H]4SC[C@@H]5NC(=O)N[C@@H]54)cc(-c4cc(OCC(=O)NCCCO[C@@H]5O[C@H](CO)[C@@H](O[C@@H]6O[C@H](CO)[C@H](O)[C@H](O[C@H]7O[C@H](CO)[C@H](O)[C@H](O)[C@H]7O)[C@H]6O)[C@H](O)[C@H]5NC(C)=O)cc(OCC(=O)NCCCO[C@@H]5O[C@H](CO)[C@@H](O[C@@H]6O[C@H](CO)[C@H](O)[C@H](O[C@H]7O[C@H](CO)[C@H](O)[C@H](O)[C@H]7O)[C@H]6O)[C@H](O)[C@H]5NC(C)=O)c4)c3)c2)O[C@H](CO)[C@@H](O[C@@H]2O[C@H](CO)[C@H](O)[C@H](O[C@H]3O[C@H](CO)[C@H](O)[C@H](O)[C@H]3O)[C@H]2O)[C@@H]1O [Example 62] has an EC50 of 0.0207 µM.
CC(=O)NC1C(OCCCNC(=O)CCOCCOCCOCCOCCNC(=O)COc2cc(OCC(=O)NCCOCCOCCOCCOCCC(=O)NCCCOC3OC(CO)C(OC4OC(CO)C(O)C(OC5OC(CO)C(O)C(O)C5O)C4O)C(O)C3NC(C)=O)cc(-c3cc(OCC(=O)NCCOCCOCCOCCOCCC(=O)NCCCOC4OC(CO)C(OC5OC(CO)C(O)C(OC6OC(CO)C(O)C(O)C6O)C5O)C(O)C4NC(C)=O)cc(C(=O)NCCNC(=O)CCOCCOCCOCCOCCOCCOCCOCCOCCOCCOCCOCCOCCNC(=O)CCCCC4SCC5NC(=O)NC54)c3)c2)OC(CO)C(OC2OC(CO)C(O)C(OC3OC(CO)C(O)C(O)C3O)C2O)C1O (stereo not drawn) [Example 54] gave an EC50 of 0.0228 µM.
CC(=O)NC1C(OCCCNC(=O)CCOCCOCCOCCOCCNC(=O)COc2ccc(-c3cc(OCC(=O)NCCOCCOCCOCCOCCC(=O)NCCCOC4OC(CO)C(OC5OC(CO)C(O)C(OC6OC(CO)C(O)C(O)C6O)C5O)C(O)C4NC(C)=O)cc(C(=O)NCCNC(=O)CCOCCOCCOCCOCCOCCOCCOCCOCCOCCOCCOCCOCCNC(=O)CCCCC4SCC5NC(=O)NC54)c3)cc2)OC(CO)C(OC2OC(CO)C(O)C(OC3OC(CO)C(O)C(O)C3O)C2O)C1O (stereo not drawn) [Example 53] gave an EC50 of 0.0349 µM.
CC(=O)NC1C(OCCCNC(=O)CCOCCOCCOCCOCCNC(=O)COc2cc(OCC(=O)NCCOCCOCCOCCOCCC(=O)NCCCOC3OC(CO)C(OC4OC(CO)C(O)C(OC5OC(CO)C(O)C(O)C5O)C4O)C(O)C3NC(C)=O)cc(-c3cc(OCC(=O)NCCOCCOCCOCCOCCC(=O)NCCCOC4OC(CO)C(OC5OC(CO)C(O)C(OC6OC(CO)C(O)C(O)C6O)C5O)C(O)C4NC(C)=O)cc(C(=O)NCCOCCOCCOCCOCCC(=O)NCCNC(=O)CCCCC4SCC5NC(=O)NC54)c3)c2)OC(CO)C(OC2OC(CO)C(O)C(OC3OC(CO)C(O)C(O)C3O)C2O)C1O (stereo not drawn) [Example 58] gave an EC50 of 0.0376 µM.
CC(=O)NC1C(OCCCNC(=O)CCOCCOCCOCCOCCOCCOCCOCCOCCOCCOCCOCCOCCNC(=O)COc2ccc(-c3cc(OCC(=O)NCCOCCOCCOCCOCCOCCOCCOCCOCCOCCOCCOCCOCCC(=O)NCCCOC4OC(CO)C(OC5OC(CO)C(O)C(OC6OC(CO)C(O)C(O)C6O)C5O)C(O)C4NC(C)=O)cc(C(=O)NCCNC(=O)CCCCC4SCC5NC(=O)NC54)c3)cc2)OC(CO)C(OC2OC(CO)C(O)C(OC3OC(CO)C(O)C(O)C3O)C2O)C1O (stereo not drawn) [Example 49] showed an EC50 of 0.0264 µM.
CC(=O)N[C@H]1[C@H](OCCCNC(=O)COc2cccc(C(=O)NCCNC(=O)CCCC[C@@H]3SC[C@@H]4NC(=O)N[C@@H]43)c2)O[C@H](CO)[C@@H](O[C@@H]2O[C@H](CO)[C@H](O)[C@H](O[C@H]3O[C@H](CO)[C@H](O)[C@H](O)[C@H]3O)[C@H]2O)[C@@H]1O [Example 2, 3-(2-((3-(((2R,3R,4R,5S,6R)-3-Acetamido-5-(((2S,3R,4S,5S,6R)-3,5-dihydroxy-6-(hydroxymethyl)-4-(((2R,3R,4S,5R,6R)-3,4,5-trihydroxy-6-(hydroxymethyl)tetrahydro-2H-pyran-2-yl)oxy)tetrahydro-2H-pyran-2-yl)oxy)-4-hydroxy-6-(hydroxymethyl)tetrahydro-2H-pyran-2-yl)oxy)propyl)amino)-2-oxoethoxy)-N-(2-(5-((3aS,4S,6aR)-2-oxohexahydro-1H-thieno[3,4-d]imidazol-4-yl)pentanamido)ethyl)benzamide] showed an EC50 of 0.0212 µM.
CC(=O)NC1C(OCCCNC(=O)CCOCCOCCOCCOCCOCCOCCOCCOCCOCCOCCOCCOCCNC(=O)COc2cc(OCC(=O)NCCOCCOCCOCCOCCOCCOCCOCCOCCOCCOCCOCCOCCC(=O)NCCCOC3OC(CO)C(OC4OC(CO)C(O)C(OC5OC(CO)C(O)C(O)C5O)C4O)C(O)C3NC(C)=O)cc(-c3cc(OCC(=O)NCCOCCOCCOCCOCCOCCOCCOCCOCCOCCOCCOCCOCCC(=O)NCCCOC4OC(CO)C(OC5OC(CO)C(O)C(OC6OC(CO)C(O)C(O)C6O)C5O)C(O)C4NC(C)=O)cc(C(=O)NCCNC(=O)CCOCCOCCOCCOCCOCCOCCOCCOCCOCCOCCOCCOCCNC(=O)CCCCC4SCC5NC(=O)NC54)c3)c2)OC(CO)C(OC2OC(CO)C(O)C(OC3OC(CO)C(O)C(O)C3O)C2O)C1O (stereo not drawn) [Example 57] was tested, and the EC50 was 0.0154 µM.
CC(=O)NC1C(OCCCNC(=O)CCOCCOCCOCCOCCNC(=O)COc2ccc(-c3cc(OCC(=O)NCCOCCOCCOCCOCCC(=O)NCCCOC4OC(CO)C(OC5OC(CO)C(O)C(OC6OC(CO)C(O)C(O)C6O)C5O)C(O)C4NC(C)=O)cc(C(=O)NCCNC(=O)CCCCC4SCC5NC(=O)NC54)c3)cc2)OC(CO)C(OC2OC(CO)C(O)C(OC3OC(CO)C(O)C(O)C3O)C2O)C1O (stereo not drawn) [Example 20] was tested, and the EC50 was 0.0148 µM.
CC(=O)N[C@H]1[C@H](OCCCNC(=O)CCCCC(=O)NCc2cccc(C(=O)NCCNC(=O)CCCC[C@@H]3SC[C@@H]4NC(=O)N[C@@H]43)c2)O[C@H](CO)[C@@H](O[C@@H]2O[C@H](CO)[C@H](O)[C@H](O[C@H]3O[C@H](CO)[C@H](O)[C@H](O)[C@H]3O)[C@H]2O)[C@@H]1O [Example 13, N^1-(3-(((2R,3R,4R,5S,6R)-3-Acetamido-5-(((2S,3R,4S,5S,6R)-3,5-dihydroxy-6-(hydroxymethyl)-4-(((2R,3R,4S,5R,6R)-3,4,5-trihydroxy-6-(hydroxymethyl)tetrahydro-2H-pyran-2-yl)oxy)tetrahydro-2H-pyran-2-yl)oxy)-4-hydroxy-6-(hydroxymethyl)tetrahydro-2H-pyran-2-yl)oxy)propyl)-N6-(3-((2-(5-((3aS,4S,6aR)-2-oxohexahydro-1H-thieno[3,4-d]imidazol-4-yl)pentanamido)ethyl)carbamoyl)benzyl)adipamide] showed an EC50 of 0.0373 µM.
CC(=O)NC1C(OCCCNC(=O)COc2cc(OCC(=O)NCCCOC3OC(CO)C(OC4OC(CO)C(O)C(OC5OC(CO)C(O)C(O)C5O)C4O)C(O)C3NC(C)=O)cc(C(=O)NCCNC(=O)CCOCCOCCOCCOCCOCCOCCOCCOCCOCCOCCOCCOCCNC(=O)CCCCC3SCC4NC(=O)NC43)c2)OC(CO)C(OC2OC(CO)C(O)C(OC3OC(CO)C(O)C(O)C3O)C2O)C1O [Example 6, 1-{5-[(3aS,4S,6aR)-2-Oxo-hexahydro-1H-thieno[3,4-d]imidazolidin-4-yl]pentanamido}-N-(2-{[3,5-bis({[(3-{[(2R,5S)-5-{[(2S,5S)-3,5-dihydroxy-6-(hydroxymethyl)-4-{[(2R,5R)-3,4,5-trihydroxy-6-(hydroxymethyl)oxan-2-yl]oxy}oxan-2-yl]oxy}-3-acetamido-4-hydroxy-6-(hydroxymethyl)oxan-2-yl]oxy}propyl)carbamoyl]methoxy})phenyl]formamido}ethyl)-3,6,9,12,15,18,21,24,27,30,33,36-dodecaoxanonatriacontan-39-amide] showed an EC50 of 0.0058 µM.
CC(=O)N[C@H]1[C@H](OCCCNC(=O)COc2cc(OCC(=O)NCCCO[C@@H]3O[C@H](CO)[C@@H](O[C@@H]4O[C@H](CO)[C@H](O)[C@H](O[C@H]5O[C@H](CO)[C@H](O)[C@H](O)[C@H]5O)[C@H]4O)[C@H](O)[C@H]3NC(C)=O)cc(C(=O)NCCNC(=O)CCCC[C@@H]3SC[C@@H]4NC(=O)N[C@@H]43)c2)O[C@H](CO)[C@@H](O[C@@H]2O[C@H](CO)[C@H](O)[C@H](O[C@H]3O[C@H](CO)[C@H](O)[C@H](O)[C@H]3O)[C@H]2O)[C@@H]1O [Example 5] showed an EC50 of 0.0091 µM.
CC(=O)N[C@H]1[C@H](OCCCNC(=O)COc2cc(OCC(=O)NCCCO[C@@H]3O[C@H](CO)[C@@H](O[C@@H]4O[C@H](CO)[C@H](O)[C@H](O[C@H]5O[C@H](CO)[C@H](O)[C@H](O)[C@H]5O)[C@H]4O)[C@H](O)[C@H]3NC(C)=O)cc(-c3cccc(-c4cccc(C(=O)NCCNC(=O)CCCC[C@@H]5SC[C@@H]6NC(=O)N[C@@H]65)c4)c3)c2)O[C@H](CO)[C@@H](O[C@@H]2O[C@H](CO)[C@H](O)[C@H](O[C@H]3O[C@H](CO)[C@H](O)[C@H](O)[C@H]3O)[C@H]2O)[C@@H]1O [Example 61] gave an EC50 of 0.0299 µM.
